Experimental data from paper PMC4167698, “Fatty Acid Esters of Phloridzin Induce Apoptosis of Human Liver Cancer Cells through Altered Gene Expression” (PLoS ONE, 2014).

Legend:
MDA-MB-231 cells = assay: MTS cell proliferation assay, MDA-MB-231; format: cell-based, human; settings: for EC50: MTS
Procedure: (§1) Cell viability was determined by using the MTS assay. In brief, HepG2 cells (5×10^3 cells/100 µL/well), MDA-MB-231 (5×10^3 cells/100 µL/well), THP-1 (25×10^3/100 µL/well), normal human and rat hepatocytes (1×10^4 cells/100 µL/well) were plated in triplicate, in a 96 well sterile flat bottom tissue culture plates. […] Thereby, cells were exposed to various concentrations (0.1, 1, 10, 25, 50, 75, 100 µM) of each treatment. Controls consist of cells with media containing DMSO (<0.5%), test blank wells contained the test compound in media with no cells and blank wells contained media with no cells. After additional 3, 6, 12, 18 or 24 h, 20 µL of the MTS reagent in combination with the electron coupling agent, phenazine methosulfate were added to the wells and cells were incubated in a humidified incubator for 3 h. Absorbance at 490 nm (OD490) was measured by using a Flurostar Optima microplate reader (BMG Labtech, Cary, NC, USA) to obtain the number of viable cells relative to the control population. Percentage of viability of the test compound treated cells are expressed as percentage compared to control (<0.5% DMSO). […] The selective index (SI) of the fatty acid esters of phloridzin is defined as the ratio of cytotoxicity (EC50 values) on normal HP-F cells to solid cancer HepG2, MDA-MB-231 cells (SI = EC50 on HP-F cells/EC50 on solid cancer cells). Samples with SI values greater than three were considered to have high selectivity towards cancer cells.

HepG2 cells [1] = assay: MTS cell proliferation assay, HepG2; format: cell-based, human; settings: for EC50: MTS
Procedure: as §1

HepG2 cells [2] = assay: LDH release cytotoxicity assay; format: cell-based, human; settings: HepG2, 100 µM, 6 h, relative to maximum release by 1% Triton X-100
Procedure: Lactate dehydrogenase (LDH) is a stable cytosolic enzyme that is released upon membrane damage in apoptotic/necrotic cells. LDH activity was measured using CytoTox 96 Non-Radioactive Cytotoxicity Assay (Promega, Madison, WI, USA), in which LDH released in culture supernatants is measured with a coupled enzymatic assay, resulting in conversion of a tetrazolium salt into a red formazan product. […] After centrifugation, the supernatant was removed to an assay plate, and the LDH released from the cells into culture medium was measured. The maximal release was obtained after treating control cells with 1% Triton X-100 for 30 min at room temperature. The apoptotic/necrotic percentage was expressed using the formula: (sample value/maximal release)×100%.

THP-1 cells = assay: MTS cell proliferation assay, THP-1; format: cell-based, human; settings: MTS
Procedure: as §1

[3] = tested on: normal human hepatocytes (HP-F); assay: MTS cell viability assay, normal human hepatocytes; format: cell-based; settings: 24 h
Procedure: as §1

rat hepatocytes (RTCP10) = assay: MTS cell viability assay, rat hepatocytes; format: cell-based; settings: 100 µM, 24 h
Procedure: as §1, with “Samples with SI values greater than three were considered to have high selectivity towards cancer cells.” left out

human DNA topo IIα = biological target: T1, human DNA topo IIα (Homo sapiens, UniProt P11388); assay: Topoisomerase IIα catalytic activity (pHOT1 DNA relaxation); format: biochemical; settings: 100 µM, 4 units enzyme, 37°C 30 min
T1 construct: purchased TopoGEN, Inc., Columbus, OH, USA
T1 sequence (P11388 whole entry): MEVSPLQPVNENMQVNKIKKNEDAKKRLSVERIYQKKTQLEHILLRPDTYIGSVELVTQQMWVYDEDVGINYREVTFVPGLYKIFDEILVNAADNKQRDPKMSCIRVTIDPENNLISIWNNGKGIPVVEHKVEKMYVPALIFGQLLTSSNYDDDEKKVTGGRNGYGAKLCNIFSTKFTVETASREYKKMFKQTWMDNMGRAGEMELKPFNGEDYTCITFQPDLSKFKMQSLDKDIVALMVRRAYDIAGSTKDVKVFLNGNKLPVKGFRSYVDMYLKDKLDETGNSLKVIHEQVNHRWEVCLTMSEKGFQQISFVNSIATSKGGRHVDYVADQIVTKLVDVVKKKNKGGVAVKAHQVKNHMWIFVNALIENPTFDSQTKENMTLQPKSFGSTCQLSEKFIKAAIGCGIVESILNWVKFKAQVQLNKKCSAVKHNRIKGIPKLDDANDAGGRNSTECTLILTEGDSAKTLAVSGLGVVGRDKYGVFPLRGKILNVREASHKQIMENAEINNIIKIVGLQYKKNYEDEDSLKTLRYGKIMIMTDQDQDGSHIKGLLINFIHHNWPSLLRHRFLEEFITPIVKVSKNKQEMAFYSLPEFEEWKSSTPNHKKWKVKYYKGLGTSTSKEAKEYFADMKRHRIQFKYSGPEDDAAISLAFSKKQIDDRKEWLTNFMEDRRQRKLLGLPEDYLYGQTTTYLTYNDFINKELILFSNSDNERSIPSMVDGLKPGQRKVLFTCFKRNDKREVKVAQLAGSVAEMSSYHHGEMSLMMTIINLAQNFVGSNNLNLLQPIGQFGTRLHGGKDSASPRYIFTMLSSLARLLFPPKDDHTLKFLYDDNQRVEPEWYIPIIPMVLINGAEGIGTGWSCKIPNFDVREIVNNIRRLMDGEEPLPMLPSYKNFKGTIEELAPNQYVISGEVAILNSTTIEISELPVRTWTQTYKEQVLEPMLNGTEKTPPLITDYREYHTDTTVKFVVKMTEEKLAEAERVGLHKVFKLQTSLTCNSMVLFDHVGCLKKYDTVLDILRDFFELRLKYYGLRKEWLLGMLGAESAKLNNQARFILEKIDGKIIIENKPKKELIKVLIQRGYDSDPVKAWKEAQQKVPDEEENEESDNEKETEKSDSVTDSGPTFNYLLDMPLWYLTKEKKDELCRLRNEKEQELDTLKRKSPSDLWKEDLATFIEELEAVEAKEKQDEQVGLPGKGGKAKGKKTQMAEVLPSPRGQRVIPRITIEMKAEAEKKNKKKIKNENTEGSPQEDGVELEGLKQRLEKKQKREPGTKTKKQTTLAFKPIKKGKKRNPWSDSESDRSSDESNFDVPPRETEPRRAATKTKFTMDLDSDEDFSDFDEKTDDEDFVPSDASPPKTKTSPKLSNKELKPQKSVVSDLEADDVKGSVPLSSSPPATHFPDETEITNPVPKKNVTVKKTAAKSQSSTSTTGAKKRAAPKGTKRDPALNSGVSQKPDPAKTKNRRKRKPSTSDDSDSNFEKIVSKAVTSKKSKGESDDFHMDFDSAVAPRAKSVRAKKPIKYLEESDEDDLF
Procedure: The topo IIα catalytic activity was monitored via electrophoresis using topoisomerase II drug screening kit (TopoGEN, Inc., Columbus, OH, USA). Briefly, 20 µL of reaction mixtures contained 0.5 M Tris-HCl, pH 8.0, 1.5 M NaCl, 100 mM MgCl2, 20 mM ATP, 300 µg BSA/mL and 5 mM dithiothreitol. Supercoiled DNA (pHOT1 DNA), supercoiled provided in the kit was determined to be ideal for this assay because it is small and easy to handle and has a large number of topo IIα recognition elements. […] The reaction was terminated by adding 2 µL of 10% sodium dodecyl sulfate (SDS) followed by digestion with 2 µL of proteinase K (50 µg/mL) at 37°C for 15 min to degrade enzyme. After adding 2 µL of loading buffer (0.25% bromophenol blue and 50% glycerol) was added to the mixture, samples were loaded onto 1% agarose gel. Electrophoresis was conducted at 66 V (2 V/cm) for 5 h in TBE buffer using Biorad Electrophoretic Gel System (Bio-Rad, Hercules, CA, USA). Supercoiled DNA (pHOT1 DNA) and relaxed DNA were included in the electrophoresis run as markers for DNA topology. Gels were then stained in 0.5 µg/mL gel red in TBE for 30 min and destained for 15 min in distilled water prior to digital image acquisition using Gel Doc 100 system (Bio-Rad, Hercules, CA, USA).
One unit of topoisomerase II activity was defined as the minimum amount of enzyme required to achieve complete relaxation of […] superhelical pHOT1 DNA in 30 min at 37°C. […] The percent of inhibition was calculated by the following formula: [drawing 1] Where Scontrol is the percent of supercoiled DNA in the control lane (without enzyme and test compounds), S0 is the percent of supercoiled DNA in the lane without test compounds and S is the percent of supercoiled DNA in the lane with test compounds and enzyme.

HepG2 cells [4] = assay: Morphologic observation under inverted phase contrast microscope; format: cell-based, human; settings: HepG2, 100 µM, 24 h
Procedure: After 24 h of treatment, the morphology of HepG2 cells was observed under an inverted phase contrast microscope (Nikon Eclipse E 100, Nikon, Mississauga, ON, Canada) and were captured at 400X magnification using Infinity digital microscopy camera (Lumenera corporation, Ottawa, ON, Canada).

HepG2 cells [5] = assay: DNA fragmentation (apoptotic DNA ladder); format: cell-based, human; settings: HepG2, 100 µM, 24 h, agarose gel
Procedure: HepG2 (1×10^5) cells were seeded in 24-well culture plates and were allowed to adhere overnight. […] The plates were re-incubated for another 24 h. DNA fragmentation was detected using ApoTarget Quick Apoptotic DNA Ladder Detection Kit (Invitrogen, Burlington, ON, Canada) according to the manufacturer’s protocol. The principle involves detecting the internucleosomal DNA fragments formed during apoptosis. Briefly, floating dead cells and trypsinized adherent cells were collected and centrifuged at 1,000 rpm for 10 min. After washing with diluted phosphate buffered saline, the cells were lysed with 35 µL TE lysis buffer (a kit component). To the lysate, 5 µL of Enzyme A (a kit component) was added and incubated at 37°C for 10 min. Afterwards, 5 µL of Enzyme B (a kit component) was added, gently mixed and incubated at 50°C for 30 min. The DNA was precipitated with the ammonium acetate and absolute ethanol at −20°C. After centrifugation (10 min at 12,000 rpm) and air drying, the DNA pellet was dissolved in 30 µL of DNA suspension buffer. For detecting the DNA ladder, the extracted DNA samples were run on a 1.2% agarose gel containing 0.5 µg/mL gel red in Tris-Borate-EDTA (TBE) buffer. After electrophoresis, the gel image was captured using Gel Doc 100 system (Bio-Rad, Mississauga, ON, Canada).

HepG2 cells [6] = assay: Mitochondrial membrane potential (JC-1); format: cell-based, human; settings: HepG2, 100 µM, 24 h
Procedure: HepG2 cells were seeded in a black walled clear bottom 96-well sterile flat bottom tissue culture plates (BD Biosciences, USA) at a density of 5×10^4 cells/well (100 µL) and incubated in a CO2 incubator for 24 h at 37°C. […] The staining solution JC-1 was prepared with PBS and 5 µM was added to each well. The cells were further incubated in a CO2 incubator at 37°C for 1 h. After washing the plate with PBS twice, the fluorescence was measured using a Fluostar Optima microplate reader (BMG Labtech) at 535 nm for JC-1 monomers and at 590 nm for JC-1 aggregates.

[7] = tested on: caspase 3 activity of HepG2 cells; assay: Caspase-3 colorimetric activity assay; format: cell-based, human; settings: HepG2, 100 µM, 24 h, compared to DMSO control
Procedure: The activity of caspase 3 enzyme was measured using caspase 3 colorimetric assay kit purchased from Sigma-Aldrich. […] Cells were lysed and the protein content of cell lysate was quantified by the BCA protein assay (Thermo Fisher Scientific Inc., Ottawa, ON, Canada). Caspase-3 activity was measured in the 200 µg of cell lysate using the caspase-specific peptide substrate, DEVD (Asp-Glu-Val-Asp), conjugated to reporter p-nitroanaline (ρ-NA) molecules.

## CC/C=C\C/C=C\C/C=C\C/C=C\C/C=C\CCCC(=O)OC[C@H]1O[C@@H](Oc2cc(O)cc(O)c2C(=O)CCc2ccc(O)cc2)[C@H](O)[C@@H](O)[C@@H]1O [Pz-EPA ester, eicosapentaenoic acid ester (EPA) of Pz]
MDA-MB-231 cells; EC50 of HP-F cells/EC50 on MDA-MB-231, 24 h
  SI (selective index): 7.5
MDA-MB-231 cells; MDA-MB-231, 3 h
  EC50: 37.9 ± 2.2 µM
MDA-MB-231 cells; MDA-MB-231, 6 h
  EC50: 33.6 ± 1.8 µM
MDA-MB-231 cells; MDA-MB-231, 12 h
  EC50: 32.6 ± 1.8 µM
MDA-MB-231 cells; MDA-MB-231, 18 h
  EC50: 31.5 ± 2.3 µM
MDA-MB-231 cells; MDA-MB-231, 24 h
  EC50: 26.5 ± 1.1 µM
HepG2 cells [1]; EC50 of HP-F cells/EC50 on HepG2, 24 h
  SI (selective index): 7.4
HepG2 cells [1]; HepG2, 3 h
  EC50: 39.4 ± 2.8 µM
HepG2 cells [1]; HepG2, 6 h
  EC50: 37.8 ± 1.9 µM
HepG2 cells [1]; HepG2, 12 h
  EC50: 36 ± 2.1 µM
HepG2 cells [1]; HepG2, 18 h
  EC50: 33.1 ± 2.4 µM
HepG2 cells [1]; HepG2, 24 h
  EC50: 26.8 ± 1.8 µM
HepG2 cells [2]
  LDH release: 82.7±1.5%
THP-1 cells; THP-1, 3 h
  EC50: 27.9 ± 1.5 µM
THP-1 cells; THP-1, 6 h
  EC50: 19.9 ± 1.1 µM
THP-1 cells; THP-1, 12 h
  EC50: 17 ± 0.6 µM
THP-1 cells; THP-1, 18 h
  EC50: 15.8 ± 0.8 µM
THP-1 cells; THP-1, 24 h
  EC50: 14.8 ± 0.6 µM
[3]
  EC50: > 100 µM

## CCCCCCCCCCCCCCCCCC(=O)OC[C@H]1O[C@@H](Oc2cc(O)cc(O)c2C(=O)CCc2ccc(O)cc2)[C@H](O)[C@@H](O)[C@@H]1O [Pz-Stearic acid ester, stearic acid ester of Pz]
Rat hepatocytes (RTCP10)
  viability of rat hepatocytes: about 50%

## CNC(=O)c1cc(Oc2ccc(NC(=O)Nc3ccc(Cl)c(C(F)(F)F)c3)cc2)ccn1 [Sorafenib, sorafenib]
Human DNA topo IIα
  catalytic activity of human DNA topo IIα (pHOT DNA relaxation): inhibited catalytic activity
HepG2 cells [4]
  apoptotic morphological changes: morphological changes which are characteristic to apoptosis
HepG2 cells [1]; Homo sapiens, HepG2, 3 h
  EC50: 67.5 ± 5.2 µM
HepG2 cells [1]; Homo sapiens, HepG2, 6 h
  EC50: 46.7 ± 3.5 µM
HepG2 cells [1]; Homo sapiens, HepG2, 12 h
  EC50: 17.3 ± 0.8 µM
HepG2 cells [1]; Homo sapiens, HepG2, 18 h
  EC50: 13.4 ± 0.9 µM
HepG2 cells [1]; Homo sapiens, HepG2, 24 h
  EC50: 10.7 ± 0.5 µM
[3]; Hepatocyte
  EC50: > 100 µM
HepG2 cells [5]
  internucleosomal DNA fragmentation: clear DNA ladders
HepG2 cells [6]
  mitochondrial membrane potential: significant (P<0.05) reduction
[7]
  caspase 3 activity: significant (P<0.001) increase
